By Kd is commonly meant the equilibrium constant for the complex coming apart. The low end stands for a tighter complex, the high end for a looser complex.

In experiment [1] the target is T1, O-GlcNAc transferase (OGT) (Homo sapiens, UniProt O15294).
T1 sequence (O15294 2-1046): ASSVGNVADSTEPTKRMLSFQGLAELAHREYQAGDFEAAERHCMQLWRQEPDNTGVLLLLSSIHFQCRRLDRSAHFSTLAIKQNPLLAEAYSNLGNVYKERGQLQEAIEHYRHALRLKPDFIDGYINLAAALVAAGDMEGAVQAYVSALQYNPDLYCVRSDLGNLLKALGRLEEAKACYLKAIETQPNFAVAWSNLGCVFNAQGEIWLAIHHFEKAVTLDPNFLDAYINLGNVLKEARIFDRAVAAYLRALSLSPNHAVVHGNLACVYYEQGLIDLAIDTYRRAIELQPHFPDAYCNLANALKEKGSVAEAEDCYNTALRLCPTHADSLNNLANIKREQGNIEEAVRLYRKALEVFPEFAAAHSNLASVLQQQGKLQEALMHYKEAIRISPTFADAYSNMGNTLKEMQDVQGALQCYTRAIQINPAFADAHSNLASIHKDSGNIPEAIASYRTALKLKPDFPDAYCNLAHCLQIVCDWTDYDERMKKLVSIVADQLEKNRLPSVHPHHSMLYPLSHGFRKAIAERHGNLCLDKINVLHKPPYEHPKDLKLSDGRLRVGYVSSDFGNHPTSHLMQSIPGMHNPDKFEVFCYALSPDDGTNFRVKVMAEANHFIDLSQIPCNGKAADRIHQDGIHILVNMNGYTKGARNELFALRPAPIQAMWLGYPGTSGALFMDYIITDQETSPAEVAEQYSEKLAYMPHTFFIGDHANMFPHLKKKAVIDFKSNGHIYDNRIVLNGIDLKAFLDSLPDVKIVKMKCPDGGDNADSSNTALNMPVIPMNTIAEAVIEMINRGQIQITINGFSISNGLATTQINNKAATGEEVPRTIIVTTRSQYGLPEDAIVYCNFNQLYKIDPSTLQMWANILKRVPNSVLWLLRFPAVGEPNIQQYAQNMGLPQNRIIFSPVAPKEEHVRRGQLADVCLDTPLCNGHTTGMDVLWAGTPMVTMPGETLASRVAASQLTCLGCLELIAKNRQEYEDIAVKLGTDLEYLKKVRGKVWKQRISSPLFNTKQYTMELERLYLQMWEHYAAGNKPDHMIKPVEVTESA
In words: SPR steady-state affinity on immobilized OGT; also in-gel covalent labelling of purified OGT, competed by OSMI-4. The class given is binding.

In experiment [2] the target is T1, O-GlcNAc transferase (OGT). In words: SPR, confirmed by MST; also in-gel covalent labelling of purified OGT, competed by OSMI-4. The class given is binding. For orientation: In SPR one partner is held on a chip, and binding of the other changes the refractive index at the surface.

For `C#CCCCCC(=O)N(CC#N)S(=O)(=O)c1cc2ccc(=O)[nH]c2cc1Cl` [7a], binding in experiment [1] was characterised by a dissociation constant (Kd) of 2 µM.
In experiment [2], `C#CCCCCC(=O)N(CC#N)S(=O)(=O)c1ccc2[nH]c(=O)ccc2c1` [8a] displayed a Kd of 28.3 µM.
